In patent US12290564B2, “Methods and apparatuses for treating tumors” (RenovoRx, Inc., priority 2017, dated 2025):

System: locally advanced pancreatic cancer
Test: Post-market registry study: intra-arterial (TAMP) delivery of gemcitabine with the RenovoCath RC120 catheter
Format: in vivo, human
Experimental: A post-market registry study was conducted to assess patient survival and clinical outcomes using the RenovoCath™ RC120 catheter (RenovoRx, Los Altos, Calif.) in a clinical, prospective observational setting when used to deliver a chemotherapeutic to the pancreas as described in Table 1. [table] […] An interventional radiologist used the RenovoCath™ RC 120 catheter to optimize drug delivery to the tumor(s). At the conclusion of the case, the femoral artery arteriotomy was sealed and patient monitored as per standard institutional protocol. All patients enrolled during the two-year registry enrollment period were followed periodically for survival outcome. Patients were contacted by telephone at the following intervals after the final intra-arterial treatment: 6 months±30 days, 1 year±30 days and 2 years±30 days. Patients were assessed for serious adverse events with specific attention to events related to local delivery of chemotherapeutic agents to the pancreas and device performance. FIG. 10 is a graph 1000 illustrating the effect of the TAMP technique on patient survival after radiation therapy compared with the effect of the TAMP technique with no radiation therapy. Fifteen patients with locally advanced pancreatic cancer were treated with gemcitabine in a dose-escalated protocol administered in four cycles using the TAMP technique. […]

Nc1ccn([C@@H]2O[C@H](CO)[C@@H](O)C2(F)F)c(=O)n1 [gemcitabine]
survival rates (survival percentage) of patients (gemcitabine by TAMP (eight treatments, or more than two treatments) compared with systemic infusion of gemcitabine (Chauffert et al. 2008), FIG. 9): greater than the survival rates of the patients given systemic infusion of the same drug
patient survival (gemcitabine by TAMP, dose-escalated, four cycles, patients with prior radiation vs no prior treatment or only prior systemic chemotherapy, FIG. 10): significant improvement in survival
